The source of these data is US20250360148A1, “SOLID DISPERSIONS OF PSILOCYBIN” (Cybin IRL Limited, priority 2022, published 2025).

Each structure is given as a SMILES string. Marks after values point to notes of the source that are not given here.

Data set [1] is described as follows: XRPD characterization of freeze-dried solid dispersions, physical mixtures and starting material. Format: physicochemical. Conditions: as prepared; solid form of psilocybin (PY) in freeze-dried dispersion, physical mixture or starting material. As for the experimental part: The samples were prepared in silicon low background holders using light manual pressure to keep the sample surface flat and level with the reference surface of the sample holder. The single crystal Si low background holder has a circular recess (10 mm diameter and about 0.2 mm depth) that holds the sample.
The Rigaku Smart-Lab diffraction system used was configured for Bragg-Brentano reflection geometry using a line source X-ray beam. The Bragg-Brentano geometry was controlled by passive divergence and receiving slits with the sample itself acting as the focusing component for the optics. The figures were created using PlotMon V2.1.1.0.
High-resolution XRPD analysis was performed using Rigaku Smart-Lab diffraction system configured for Debye-Scherrer transmission geometry. The Debye-Scherrer convergent beam geometry utilizes a curved x-ray mirror to focus the incident beam through the sample and onto the detector plane. The axial divergence of the X-ray beam was controlled by 5.0° Soller slits in both the incident and diffracted beam paths.
Freeze-dried solid dispersions of Examples 1-5, and corresponding Reference Examples, were characterized using X-ray powder diffraction (XRPD).

Data set [2] is described as follows: Characterization and 40° C. closed-vial stability of spray dried solid dispersions (XRPD, mDSC, TGA). Format: physicochemical. Conditions: t = 0, spray dried. On the procedure: X-ray power diffraction (XRPD): XRPD patterns were collected on a Bruker AXS D2 diffractometer using Cu Kα radiation (30 kV, 10 mA), […], using a LynxEye detector from 5-42 °2θ.
The details of the data collection are: • Angular range: 5 to 42 °2θ • Step size: 0.024° 2θ • Collection time: 0.1 seconds per step.
Samples were run under ambient conditions and prepared as flat plate specimens using powder without grinding. Approximately 1-2 mg of the sample was lightly pressed on a silicon wafer to obtain a flat surface.
Modulated differential scanning calorimetry (mDSC): TOPEM® is a temperature modulated DSC method which differs from conventional DSC in allowing the total heat flow to be separated into reversing and non-reversing heat flow components. Such techniques help distinguish between processes or transitions that overlap or lie very close to one another. The glass transition temperature (Tg) was determined from the reversible heatflow component.
TOPEM® DSC data were collected on a Mettler DSC 3+ equipped with a 34 position auto-sampler. The instrument was calibrated for energy and temperature using certified indium. Typically, 3-5 mg of each sample, in a pin-holed aluminium pan, was heated at 2 K·min^−1 from 30° C. to 220° C. with a pulse height of 0.64 K and a pulse width 15-30 sec. A nitrogen purge at 50 mL·min^−1 was maintained over the sample. […]

For data set [3] the following is noted: cited from earlier work.

Take `CN(C)CCc1c[nH]c2cccc(OP(=O)(O)O)c12` [Crystalline PY starting material, 3-(2-(dimethylamino)ethyl)-1H-indol-4-yl dihydrogen phosphate]: the “XRPD Results” value in data set [1] is recorded as “crystalline PY (methanol solvate)^a”.

For `CN(C)CCc1c[nH]c2cccc(OP(=O)(O)O)c12` [Psilocybin (PY), 3-(2-(dimethylamino)ethyl)-1H-indol-4-yl dihydrogen phosphate], the XRPD entry in data set [2] is “Amorphous”. Also, the Tg in data set [2] (mDSC) was 161 °C.

Turning to `CN(C)CCc1c[nH]c2cccc(OP(=O)(O)O)c12` [amorphous psilocybin], in data set [3] (reported by Greenan et al.), the “Tg (midpoint)” value is 163 °C. Besides, in data set [3] (variety of stress conditions, Greenan et al.), the “physical stability of the amorphous form without polymer” value is “known to crystallize”.
